Legend:
Test in all cases: LDH cytotoxicity assay after light-triggered release
Type in all cases: cell-based
[1] = test system: MDA-MB-231 breast cancer cells; settings: pulsed laser-induced release (25 mW, 160 fs, 2 min) from NS@DNA1@DTX, FIG. 7A; 24 h
Experimental: (§1) Cellular cytotoxicity resulting from light-triggered release of DTX and LAP from both dsDNA and HSA nanohost molecules was evaluated. Cells were irradiated, according to one or more embodiments, with either a CW laser imparting 1.5 W of power or with a pulsed-laser using a Ti:Sapphire tunable laser operating at 250 kHz with an average power of 25 mW and 160-fs pulsed-laser power for 2 min.
(§2) After the guest molecules were released, each sample was treated at 37° C., 5% CO2 for a treatment period of 24 h to allow time for the released drug guest molecules to interact with the cells. Cell death was evaluated with a lactate dehydrogenase (LDH) cytotoxicity assay. Percent cytotoxicity values were calculated considering 10% cell death in the control experiment, NS @host with no laser treatment.

[2] = test system: RAW 264.7 macrophage cells; settings: macrophages lack the HER2 receptor
Experimental: as §1, §2
(§3) LAP was released from both an NS @DNA nanohost control and an NS @HSA nanohost in both SKBR3 breast cancer cells and RAW 264.7 macrophage cells.

[3] = test system: SKBR3 breast cancer cells; settings: released LAP; HER2 expressing breast cancer cells vs noncancerous cells
Experimental: as §1, §2, §3

`CC(=O)O[C@@]12CO[C@@H]1C[C@H](O)[C@@]1(C)C(=O)[C@H](O)C3=C(C)[C@@H](OC(=O)[C@H](O)[C@@H](NC(=O)OC(C)(C)C)c4ccccc4)C[C@@](O)([C@@H](OC(=O)c4ccccc4)[C@H]21)C3(C)C` [DTX, docetaxel] was tested, and the “cell death (LDH)” value [1] was “No increased cell death”.

In the case of `CS(=O)(=O)CCNCc1ccc(-c2ccc3ncnc(Nc4ccc(OCc5cccc(F)c5)c(Cl)c4)c3c2)o1` [LAP, lapatinib], the cytotoxicity in macrophages [2] is reported as “does not cause cytotoxicity” and the “selectivity of cell death” value [3] is reported as “selectively induces cell death in HER2 expressing breast cancer cells, without affecting noncancerous cells”.

Source: US20200164072A1, “NANOCOMPLEXES FOR REMOTELY-TRIGGERED GUEST MOLECULE RELEASE AND METHODS FOR FABRICATING THE SAME” (William Marsh Rice University, priority 2018, published 2020)
